Data set [1] deals with Rat2 fibroblasts stably transformed with v-Src/Hu c-Src fusion gene (Homo sapiens, UniProt P12931, cells depend on it, form not given). Description: Anchorage Independent Src-transformed Fibroblast Proliferation Assay. It counts as cell-based, Rat. The settings on record: suspension growth, MTS reagent on Day 5; read-out: anch-indep src-tx fib IC50. The procedure:
Anchorage Independent Src-transformed Fibroblast Proliferation Assay
Rat2 fibroblasts stably transformed with a plasmid containing a CMV promotor controlled v-Src/Hu c-Src fusion gene in which the catalytic domain of human c-Src was inserted in place of the v-Src catalytic domain in the v-Src gene are used for the measurement of src dependent suspension growth. […] Multiple entries for a given compound indicate that it was tested multiple times.
For orientation: Tetrazolium assays rely on reduction of a dye to a coloured formazan, in cell work by metabolically active cells.

The structures appear in SMILES notation. Several values for one entry are separate records, joined by “and”; a condition that tells them apart may be missing. Equal values may be shown once.

Chain of Rat2 fibroblasts stably transformed with v-Src/Hu c-Src fusion gene (P12931 whole entry, change not shown, the tested form may be a part): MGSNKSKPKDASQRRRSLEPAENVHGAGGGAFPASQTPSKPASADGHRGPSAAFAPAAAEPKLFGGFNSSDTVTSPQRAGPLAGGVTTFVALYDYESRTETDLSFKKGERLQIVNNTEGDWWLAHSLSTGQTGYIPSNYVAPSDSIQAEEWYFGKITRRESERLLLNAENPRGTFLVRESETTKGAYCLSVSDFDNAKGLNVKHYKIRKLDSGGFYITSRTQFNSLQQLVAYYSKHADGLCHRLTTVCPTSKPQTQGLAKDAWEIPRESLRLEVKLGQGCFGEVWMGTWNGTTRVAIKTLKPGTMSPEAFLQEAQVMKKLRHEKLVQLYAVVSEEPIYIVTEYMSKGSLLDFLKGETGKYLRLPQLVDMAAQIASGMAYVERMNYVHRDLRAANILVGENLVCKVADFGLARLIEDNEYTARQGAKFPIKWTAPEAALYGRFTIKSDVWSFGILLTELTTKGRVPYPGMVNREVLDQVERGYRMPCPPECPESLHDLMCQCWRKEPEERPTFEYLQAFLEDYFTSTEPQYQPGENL

`COC(=O)C1CCN(Cc2ccc(-c3ccc4c(Nc5cc(OC)c(Cl)cc5Cl)c(C#N)cnc4c3)cc2)CC1` [Example 231, Methyl 1-{4-[3-cyano-4-(2,4-dichloro-5-methoxyanilino)-7-quinolinyl]benzyl}-4-piperidinecarboxylate]: the melting point (in general, the temperature of the solid-liquid transition) was 278 to 280 °C. In data set [1], the GI50 was 0.39 µM.
`COc1cc(Nc2c(C#N)cnc3cc(-c4ccc(CN5CCN(CCO)CC5)o4)ccc23)c(Cl)cc1Cl` [Example 75, 4-(2,4-Dichloro-5-methoxyanilino)-7-(5-{[4-(2-hydroxyethyl)-1-piperazinyl]methyl}-2-furyl)-3-quinolinecarbonitrile] registered a melting point of 176 to 181 °C. The GI50 in data set [1] turned out to be 0.29 µM.
Take `COC(=O)C1CCN(Cc2ccc(-c3ccc4c(Nc5cc(OC)c(Cl)cc5Cl)c(C#N)cnc4c3)nc2)CC1` [Example 176, 1-{6-[3-Cyano-4-(2,4-dichloro-5-methoxyphenylamino)-quinolin-7-yl]-pyridin-3-ylmethyl}-piperidine-4-carboxylic acid methyl ester]: the melting point lay within 186 to 188 °C. Also, in data set [1], the GI50 amounted to 0.09 µM.
Molecule `COc1cc(Nc2c(C#N)cnc3cc(-c4ccc(CN5CCC(C(=O)O)CC5)cc4)ccc23)c(Cl)cc1Cl` [Example 237, 1-{4-[3-Cyano-4-(2,4-dichloro-5-methoxyanilino)-7-quinolinyl]benzyl}-4-piperidinecarboxylic acid] displayed a melting point of 248 °C. The GI50 in data set [1] is 0.49 µM and 0.52 µM and 0.41 µM.
Molecule `COc1cc(Nc2c(C#N)cnc3cc(-c4ccc(CN5CCOCC5)o4)ccc23)c(Cl)cc1Cl` [Example 53, 4-(2,4-Dichloro-5-methoxyanilino)-7-[5-(4-morpholinylmethyl)-2-furyl]-3-quinolinecarbonitrile] registered a melting point of 182 to 183 °C. The GI50 in data set [1] was found to be 0.25 µM.
In the same order, the values of `CN(C)CC#Cc1ccc2c(Nc3ccc(Cl)cc3Cl)c(C#N)cnc2c1` [Example 15, 4-(2,4-dichloroanilino)-7-[3-(dimethylamino)-1-propynyl]-3-quinolinecarbonitrile] are 144 to 145 °C and greater than 10 µM.
The molecule `COc1cc(Nc2c(C#N)cnc3cc(-c4ccc(CN5CCC[C@@H]5C(N)=O)o4)ccc23)c(Cl)cc1Cl` [Example 47, (2 R)-1-({5-[3-cyano-4-(2,4-dichloro-5-methoxyanilino)-7-quinolinyl]-2-furyl}methyl)-2-pyrrolidinecarboxamide] registered a melting point of 121 to 126 °C. For the same molecule, the GI50 in data set [1] is 1.17 µM.
In the same order, the values of `COc1cc(Nc2c(C#N)cnc3cc(-c4ccc(CCl)cc4)ccc23)c(Cl)cc1Cl` [Example 102, 7-[4-(Chloromethyl)phenyl]-4-(2,4-dichloro-5-methoxyanilino)-3-quinolinecarbonitrile] are 236 to 239 °C and 7.5 µM.
In the same order, the values of `COc1cc(Nc2c(C#N)cnc3cc(-c4csc(CN5CCOCC5)c4)ccc23)c(Cl)cc1C` [Example 80, 4-(2-chloro-5-methoxy-4-methylanilino)-7-[5-(4-morpholinylmethyl)-3-thienyl]-3-quinolinecarbonitrile] are 168 to 170 °C and 0.08 µM.
In the same order, the values of `COc1cc(Nc2c(C#N)cnc3cc(-c4cc5ccccc5o4)ccc23)c(Cl)cc1Cl` [Example 119, 7-(1-Benzofuran-2-yl)-4-(2,4-dichloro-5-methoxyanilino)-3-quinolinecarbonitrile] are 276 to 277 °C and greater than 10 µM.
In the case of `COc1cc(Nc2c(C#N)cnc3cc(-c4cnc(CN5CCOCC5)n4C)c(OC)cc23)c(Cl)cc1Cl` [Example 232, 4-(2,4-Dichloro-5-methoxyanilino)-6-methoxy-7-[1-methyl-2-(4-morpholinylmethyl)-1H-imidazol-5-yl]-3-quinolinecarbonitrile], the melting point was 248 to 252 °C. In addition, in data set [1], the GI50 is 3.5 µM.
As to `COc1cc(Nc2c(C#N)cnc3cc(-c4ccc(CNCCS(=O)(=O)c5ccccc5)o4)ccc23)c(Cl)cc1Cl` [Example 58, 4-(2,4-Dichloro-5-methoxyanilino)-7-[5-({[2-(phenylsulfonyl)ethyl]amino}methyl)-2-furyl]-3-quinolinecarbonitrile], the melting point is 123 to 128 °C. The GI50 in data set [1] is 5.1 µM.
In the same order, the values of `COc1cc(Nc2c(C#N)cnc3cc(-c4ncccc4CN4CCOCC4)ccc23)c(Cl)cc1Cl` [Example 111, 4-(2,4-Dichloro-5-methoxyanilino)-7-[3-(morpholin-4-ylmethyl)-pyridin-2-yl]-3-quinolinecarbonitrile] are 151 to 154 °C and greater than 10 µM.
In the same order, the values of `N#Cc1cnc2cc(C=CCCCCN3CCOCC3)ccc2c1Nc1ccc(Cl)cc1Cl` (mixture of isomers) [Example 16, 4-(2,4-Dichloroanilino)-7-[(E/Z)-6-(4-morpholinyl)-1-hexenyl]-3-quinolinecarbonitrile] are 128 to 130 °C and greater than 10 µM.
In the same order, the values of `COc1cc(Nc2c(C#N)cnc3cc(-c4ccc(CN5CCCCC5C(=O)O)cc4)ccc23)c(Cl)cc1Cl` (centres unmarked) [Example 147, 1-{4-[3-Cyano-4-(2,4-dichloro-5-methoxyanilino)-7-quinolinyl]benzyl}-2-piperidinecarboxylic acid] are 230 °C (dec.) and 4.6 µM.
With `COc1ccc(Cl)c(Nc2c(C#N)cnc3cc(-c4csc(CN5CCOCC5)c4)ccc23)c1` [Example 131, 4-(2-Chloro-5-methoxyanilino)-7-[5-(4-morpholinylmethyl)-3-thienyl]-3-quinolinecarbonitrie], the melting point was in the range of 110 to 115 °C. Also, the GI50 in data set [1] worked out at 0.09 µM.
In the same order, the values of `COc1cc(Nc2c(C#N)cnc3cc(-c4ccc(Oc5ccc(CN6CCOCC6)cc5)nc4)ccc23)c(Cl)cc1Cl` [Example 193, 4-(2,4-Dichloro-5-methoxyanilino)-7-{6-[4-(4-morpholinylmethyl)phenoxy]-3-pyridinyl)-3-quinolinecarbonitrile] are 176 to 178 °C and greater than 10 µM.
In the same order, the values of `COc1ccc(C#Cc2ccc3c(Nc4cc(OC)c(Cl)cc4Cl)c(C#N)cnc3c2)cc1` [Example 90, 4-(2,4-dichloro-5-methoxyanilino)-7-[2-(4-methoxyphenyl)ethynyl]-3-quinolinecarbonitrile] are 225 to 226 °C and greater than 10 µM.
Take `COc1cc(Nc2c(C#N)cnc3cc(-n4cccc4)ccc23)c(Cl)cc1Cl` [Example 92, 4-(2,4-Dichloro-5-methoxyanilino)-7-pyrrol-1-yl-3-quinolinecarbonitrile]: the melting point was 205 to 207 °C. Moreover, the GI50 in data set [1] turned out to be 2.11 µM.
In the same order, the values of `COc1cc(Nc2c(C#N)cnc3cc(-c4ccc(N5CCOCC5)cc4)ccc23)c(Cl)cc1Cl` [Example 67, 4-(2,4-Dichloro-5-methoxyanilino)-7-[4-(4-morpholinyl)phenyl]-3-quinolinecarbonitrile] are 235 to 237 °C and 0.11 µM.
`COc1cc(Nc2c(C#N)cnc3cc(C#CCCl)ccc23)c(Cl)cc1Cl` [Example 152, 7-(3-Chloro-1-propynyl)-4-[(2,4-dichloro-5-methoxyphenyl)amino]-3-quinolinecarbonitrile] showed a melting point of 215 to 217 °C. Also, the GI50 in data set [1] is 4.8 µM and 3.8 µM.
For the molecule `COc1cc(Nc2c(C#N)cnc3cc(-c4ccc(CN(CCO)CCO)o4)ccc23)c(Cl)cc1Cl` [Example 76, 7-(5-{[Bis(2-hydroxyethyl)amino]methyl}-2-furyl)-4-(2,4-dichloro-5-methoxyanilino)-3-quinolinecarbonitrile], the melting point is 155 to 160 °C. In addition, in data set [1], the GI50 amounted to 1.1 µM.
Take `COc1cc(Nc2c(C#N)cnc3cc(-c4ccc(C5OCCO5)s4)ccc23)c(Cl)cc1Cl` [Example 51, 4-(2,4-dichloro-5-methoxyanilino)-7-[5-(1,3-dioxolan-2-yl)-2-thienyl]-3-quinolinecarbonitrile]: the melting point was 174 to 177 °C (dec.). In addition, the GI50 in data set [1] came to 0.42 µM.
In the same order, the values of `COc1cc(Nc2c(C#N)cnc3cc(-c4csc(CN5CCOCC5)c4)ccc23)c(C)cc1Cl` [Example 167, 4-(4-Chloro-5-methoxy-2-methylanilino)-7-[5-(4-morpholinylmethyl)-3-thienyl]-3-quinolinecarbonitrile] are > 108 °C (dec.) and 0.9 µM.
In the same order, the values of `COc1cc(Nc2c(C#N)cnc3cc(-c4ccc(C=O)cc4)ccc23)c(Cl)cc1Cl` [Example 83, 4-(2,4-dichloro-5-methoxyanilino)-7-(4-formylphenyl)-3-quinolinecarbonitrile] are 248 to 251 °C and 3.9 µM.
In the same order, the values of `COc1cc(Nc2c(C#N)cnc3cc(-c4ccc(CO)cc4)ccc23)c(Cl)cc1Cl` [Example 101, 4-(2,4-Dichloro-5-methoxyanilino)-7-[4-(hydroxymethyl)phenyl]-3-quinolinecarbonitrile] are 264 to 267 °C and greater than 10 µM.
As to `CCOC(=O)CC1CCN(Cc2ccc(-c3ccc4c(Nc5cc(OC)c(Cl)cc5Cl)c(C#N)cnc4c3)cc2)CC1` [Example 144, Ethyl (1-{4-[3-cyano-4-(2,4-dichloro-5-methoxyanilino)-7-quinolinyl]benzyl}-4-piperidinyl) acetate], the melting point was in the range of 142 to 144 °C. For the same molecule, in data set [1], the GI50 amounted to 0.092 µM.
In the same order, the values of `COc1cc(Nc2c(C#N)cnc3cc(/C=C/C(=O)OC(C)(C)C)ccc23)c(Cl)cc1Cl` [Example 142, (E)-tert-Butyl 3-[3-cyano-4-(2,4-dichloro-5-methoxyanilino)-7-quinolinyl]-2-propenoate] are 203 to 204 °C and greater than 10 µM.
